Assays:
rat P2X7-GFP = biological target: T1, rat P2X7-GFP (Rattus norvegicus, UniProt Q64663); assay: Whole-cell patch clamp electrophysiology; format: cell-based
T1 construct: expressed in transfected cells; host or cells: HEK-293 cells stably expressing rat P2X7-GFP (patch clamp)
T1 sequence (Q64663 1-595): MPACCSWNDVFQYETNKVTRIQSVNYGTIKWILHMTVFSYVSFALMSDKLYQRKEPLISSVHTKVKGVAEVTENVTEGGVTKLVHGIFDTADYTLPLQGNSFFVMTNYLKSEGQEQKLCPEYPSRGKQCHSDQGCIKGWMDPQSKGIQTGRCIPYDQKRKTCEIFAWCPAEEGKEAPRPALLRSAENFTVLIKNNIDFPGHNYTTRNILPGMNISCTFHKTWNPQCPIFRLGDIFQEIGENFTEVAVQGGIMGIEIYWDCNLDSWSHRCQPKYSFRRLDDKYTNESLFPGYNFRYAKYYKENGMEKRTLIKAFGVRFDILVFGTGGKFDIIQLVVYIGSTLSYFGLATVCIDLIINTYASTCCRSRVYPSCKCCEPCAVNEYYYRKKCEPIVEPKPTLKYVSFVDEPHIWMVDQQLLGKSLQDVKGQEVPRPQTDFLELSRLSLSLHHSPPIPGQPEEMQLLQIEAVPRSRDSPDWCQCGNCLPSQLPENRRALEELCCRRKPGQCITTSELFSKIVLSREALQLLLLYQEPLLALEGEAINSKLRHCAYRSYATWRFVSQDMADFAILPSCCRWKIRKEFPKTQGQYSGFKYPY
Method: Whole-cell patch-clamp traces were recorded at room temperature using patch pipettes pulled from borosilicate glass (World Precision Instruments, Sarasota, FL, United States). Pipettes were filled with internal solution (IS) containing (in mM): 145 NaCl, 10 EGTA and 10 HEPES, with the pH adjusted to 7.3 with NaOH and had resistances of 3–5 MΩ. Cells were constantly perfused in a bath with ECS-LD. Currents were recorded at a holding membrane potential of −60 mV using an Axon Instruments Axopatch Multiclamp 700A amplifier and Digidata 1322A A/D interface (Molecular Devices, Sunnyvale, CA, United States). […] ATP applications were made at 90-s intervals. Solutions were applied to patch-clamped cells with the help of a rapid perfusion system (RSC-160, Biologic, Claix, France), allowing solution exchange times in the range […].
In order to confirm GP-25 as a competitive (orthosteric) antagonist, BzATP concentration-response curves (ranging between 300 μM and .03 µM) were constructed for rat P2X7-GFP in the YoPro-1 uptake assay in the presence of increasing concentrations of GP-25 (Figure 3A).

HEK-293 = assay: CellTiter-Blue cell viability assay; format: cell-based, human; details: 30 µM compound; 24 h incubation; HEK-293 wild-type
Method: To assess hit compound toxicity, CellTiter-Blue Cell Viability Assay (Promega, Southampton, United Kingdom) was used as recommended by the manufacturer on not transfected HEK-293. Cells were seeded in 96-well plates (100 μL at a concentration of 30–35,000 cells/ml) in culture media and a day later media was replaced with 100 µL fresh media containing 30 µM of tested compounds (10 µM of A740003). After 24 h incubation at 37 °C, 5% CO2, 20 µL of CellTiter Blue reagent was added to each well and incubated for 3 h at 37°C. Fluorescence was then measured with a BMG Clariostar using excitation/emission wavelengths of 560/590 nm. Data were normalized to vehicle control-treated cells (.1% DMSO).

reduction in P2X7 activity at 25 µM (rat P2X7-GFP; 25 µM compound, patch clamp): statistically significant reduction | inhibition of ATP-evoked currents (rat P2X7-GFP; GP-25 pre-applied for 2 min, 300 µM ATP, HEK-293 cells): concentration-dependent inhibition
Compound: COC(=O)C1=C(C)NC2=C(C(=O)c3ccccc32)C1c1cc(Br)ccc1OCC(=O)O (stereo not drawn) [Compound 9, (4-bromo-2-(3-(methoxycarbonyl)-2-methyl-5-oxo-4,5-dihydro-1H-indeno(1,2-b)pyridine-4-yl)phenoxy)acetic acid]
cell viability (HEK-293): did not significantly reduce cell viability
